Series [1] has as its target T1, Peroxisome proliferator-activated receptor alpha (Homo sapiens, UniProt Q07869).
T1 sequence (Q07869 whole entry): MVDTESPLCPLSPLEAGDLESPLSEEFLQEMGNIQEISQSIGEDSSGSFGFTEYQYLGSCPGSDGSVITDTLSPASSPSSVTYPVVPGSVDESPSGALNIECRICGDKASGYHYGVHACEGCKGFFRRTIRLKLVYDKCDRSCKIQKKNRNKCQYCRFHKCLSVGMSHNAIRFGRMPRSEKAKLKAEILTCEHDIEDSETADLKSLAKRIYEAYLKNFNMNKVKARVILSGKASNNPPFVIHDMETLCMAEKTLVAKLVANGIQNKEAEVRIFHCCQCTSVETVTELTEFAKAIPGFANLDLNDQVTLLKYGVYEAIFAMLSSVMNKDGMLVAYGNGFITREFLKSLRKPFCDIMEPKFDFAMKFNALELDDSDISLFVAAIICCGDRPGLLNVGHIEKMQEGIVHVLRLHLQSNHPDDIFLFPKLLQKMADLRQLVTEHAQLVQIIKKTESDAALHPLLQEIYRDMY
The series can be described thus: Agonist activity at human PPAR alpha by GAL4 transactivation assay. In kind it is functional.

In series [2] the target is T2, Peroxisome proliferator-activated receptor delta (Homo sapiens, UniProt Q03181).
T2 sequence (Q03181 whole entry): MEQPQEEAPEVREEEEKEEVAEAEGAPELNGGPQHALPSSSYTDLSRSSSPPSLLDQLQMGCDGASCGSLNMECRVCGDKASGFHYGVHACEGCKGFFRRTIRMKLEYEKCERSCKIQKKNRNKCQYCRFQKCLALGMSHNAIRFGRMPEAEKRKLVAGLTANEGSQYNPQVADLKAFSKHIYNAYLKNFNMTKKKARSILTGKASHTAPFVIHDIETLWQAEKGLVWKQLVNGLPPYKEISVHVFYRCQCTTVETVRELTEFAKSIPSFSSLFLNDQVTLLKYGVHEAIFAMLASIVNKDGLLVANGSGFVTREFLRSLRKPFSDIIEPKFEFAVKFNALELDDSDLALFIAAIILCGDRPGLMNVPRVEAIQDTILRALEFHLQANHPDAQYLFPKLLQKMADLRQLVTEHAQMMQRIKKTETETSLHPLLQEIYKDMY
The series can be described thus: Agonist activity at human PPAR delta by GAL4 transactivation assay. In kind it is functional.

Series [3] deals with THP-1. The series can be described thus: Induction of ABCA1 expression in THP1 cell line. In kind it is functional, cell-based. The conditions noted are these: Homo sapiens.
The subject of series [4] is Huh-7. The series can be described thus: Induction of SREBP1c expression in Huh7 cell line. It is filed as functional, cell-based. The conditions noted are these: Homo sapiens.
For series [5], the system named is THP-1. As to the kind of experiment: Induction of ABCA1 expression in THP1 cell line relative to TO901317. It is filed as functional, Homo sapiens.
The subject of series [6] is Huh-7. As to the kind of experiment: Induction of SREBP1c expression in Huh7 cell line relative to TO901317. It is filed as functional, Homo sapiens.
A short description of series [7]: Half life in human liver microsomes. In kind it is ADME, Microsome. (Microsomes from liver hold many membrane-bound enzymes, among them those of drug oxidation.)
The target of series [8] is T3, Peroxisome proliferator-activated receptor gamma (Homo sapiens, UniProt P37231).
T3 sequence (P37231 whole entry): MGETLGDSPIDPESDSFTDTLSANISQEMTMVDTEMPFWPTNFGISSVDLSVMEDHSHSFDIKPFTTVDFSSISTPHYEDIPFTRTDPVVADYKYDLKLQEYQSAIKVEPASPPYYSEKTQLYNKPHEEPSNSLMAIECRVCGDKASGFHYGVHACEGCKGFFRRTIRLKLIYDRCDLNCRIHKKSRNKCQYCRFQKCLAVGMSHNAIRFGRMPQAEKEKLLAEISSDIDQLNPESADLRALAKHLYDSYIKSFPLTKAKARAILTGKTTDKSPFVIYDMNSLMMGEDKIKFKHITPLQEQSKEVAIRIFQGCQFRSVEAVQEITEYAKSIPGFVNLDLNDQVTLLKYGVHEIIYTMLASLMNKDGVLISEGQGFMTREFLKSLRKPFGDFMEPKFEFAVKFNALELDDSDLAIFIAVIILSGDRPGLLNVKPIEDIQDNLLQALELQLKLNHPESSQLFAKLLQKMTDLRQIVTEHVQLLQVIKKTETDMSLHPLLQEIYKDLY

In series [9] the target is T4, Oxysterols receptor LXR-beta (Homo sapiens, UniProt P55055).
T4 sequence (P55055 whole entry): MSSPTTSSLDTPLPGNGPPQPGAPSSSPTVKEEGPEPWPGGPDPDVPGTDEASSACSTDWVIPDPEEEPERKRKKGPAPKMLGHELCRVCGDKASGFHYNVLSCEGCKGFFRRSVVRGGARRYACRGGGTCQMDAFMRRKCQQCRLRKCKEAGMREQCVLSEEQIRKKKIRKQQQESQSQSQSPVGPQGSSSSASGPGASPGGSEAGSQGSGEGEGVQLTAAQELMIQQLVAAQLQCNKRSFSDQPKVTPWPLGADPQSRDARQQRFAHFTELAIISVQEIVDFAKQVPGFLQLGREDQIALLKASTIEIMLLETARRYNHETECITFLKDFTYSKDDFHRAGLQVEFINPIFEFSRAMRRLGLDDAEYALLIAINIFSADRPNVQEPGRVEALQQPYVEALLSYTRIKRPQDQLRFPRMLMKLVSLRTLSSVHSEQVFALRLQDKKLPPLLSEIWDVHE

Series [10] deals with T5, Oxysterols receptor LXR-alpha (Homo sapiens, UniProt Q13133).
T5 sequence (Q13133 whole entry): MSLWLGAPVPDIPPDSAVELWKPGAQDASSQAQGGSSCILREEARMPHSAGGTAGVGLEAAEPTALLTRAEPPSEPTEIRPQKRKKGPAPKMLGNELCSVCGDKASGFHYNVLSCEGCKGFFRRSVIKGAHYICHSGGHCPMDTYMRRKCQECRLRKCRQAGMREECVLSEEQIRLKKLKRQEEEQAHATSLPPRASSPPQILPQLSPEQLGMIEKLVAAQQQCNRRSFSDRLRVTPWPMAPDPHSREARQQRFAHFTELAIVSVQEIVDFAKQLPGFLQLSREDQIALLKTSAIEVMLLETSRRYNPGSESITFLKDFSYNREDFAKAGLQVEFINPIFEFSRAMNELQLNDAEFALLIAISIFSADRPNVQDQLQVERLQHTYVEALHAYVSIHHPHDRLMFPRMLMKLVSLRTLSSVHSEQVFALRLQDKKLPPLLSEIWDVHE

The target in series [11] is T4, Oxysterols receptor LXR-beta. This is another data set of the same source.
Series [12] can be described thus: Half life in human liver microsomes at 20 uM. It is filed as ADME, Microsome.
The target in series [13] is T5, Oxysterols receptor LXR-alpha. The series can be described thus: Agonist activity at human LXR alpha expressed in Huh7 cells by GAL4 transactivation assay. It is filed as functional, cell-based, Huh-7.
Series [14] has as its target T4, Oxysterols receptor LXR-beta. As to the kind of experiment: Agonist activity at human LXR beta expressed in Huh7 cells by GAL4 transactivation assay. It is filed as functional, cell-based, Huh-7.
The test system of series [15] is THP-1. As to the kind of experiment: Stimulation of cholesterol efflux in THP1 cell line. In kind it is functional, cell-based. The settings on record: Homo sapiens.
The nature of series [16]: Bioavailability in C57 mouse at 10 mg/kg, po. It is filed as ADME, organism-based. The conditions noted are these: in vivo.
A short description of series [17]: Cmax in C57 mouse at 10 mg/kg, po. In kind it is ADME, organism-based. On the set-up: dose 10 mg/kg, route oral. The settings on record: in vivo.
Series [18] is described as follows: AUC (0-infinity) in C57 mouse at 10 mg/kg, po. It is filed as ADME, organism-based. The conditions noted are these: plasma. Also on record: time infinity, dose 10 mg/kg, route oral.
Series [19] can be described thus: Terminal half life in C57 mouse at 10 mg/kg, po. It is filed as ADME, organism-based. On the set-up: dose 10 mg/kg, route oral. The conditions noted are these: in vivo, read-out: beta t1/2 (converted).
Series [20] can be described thus: Tmax in C57 mouse at 10 mg/kg, po. Also on record: dose 10 mg/kg, route oral. The settings on record: in vivo. In kind it is ADME, organism-based.
The subject of a further series is Mus musculus. As to the kind of experiment: Reduction of atherosclerotic lesion of thoracic aorta in LDLr knockout C57BL/6 mouse at 10 mg/kg/day, po after 8 weeks relative to control. On the set-up: scale not given: the % may be the effect or the level left. It is filed as functional.

The structures appear in SMILES notation.

Results on five compounds are retold here after ChEMBL document CHEMBL1137409, “Discovery of phenyl acetic acid substituted quinolines as novel liver X receptor agonists for the treatment of atherosclerosis” (J Med Chem, 2006).

Take `O=C(O)Cc1ccc(COc2cccc(-c3c(Cc4ccccc4)cnc4c(C(F)(F)F)cccc34)c2)cc1`: the EC50 (commonly the concentration at which the effect is half-maximal) was 1310 nM in [1]; 627 nM in [2]; 55 nM with THP-1 [3]; 45 nM in the series on Huh-7 [4]; 680 nM in [8]. In addition, the Efficacy with THP-1 [5] stood at 172%; with Huh-7 [6], 106%. This compound returned a half-life in [7] of 107 min.

Turning to `COC(=O)c1ccc(COc2cccc(-c3c(C(=O)c4ccccc4)cnc4c(C(F)(F)F)cccc34)c2)cc1`, the IC50 in series [9] and in series [10] was above 1000 nM in each case. The compound further showed an EC50 in series [11] of 296 nM.

For the compound `O=C(O)Cc1ccc(COc2cccc(-c3c(C(=O)c4ccccc4)cnc4c(C(F)(F)F)cccc34)c2)cc1`, the half-life at 20 µM in series [12] was 3.5 min.

With `O=C(O)Cc1ccc(CNc2cccc(-c3c(Cc4ccccc4)cnc4c(C(F)(F)F)cccc34)c2)cc1`, the half-maximal effective concentration (EC50) was found to be 160 nM in series [13]; 87 nM in series [14]; 1300 nM in [1]; 1320 nM in series [2]; 33 nM with THP-1 [3]; 15 nM with Huh-7 [4]. In addition, the EC50 in the series on THP-1 [15] came to 37 nM; in [8], 320 nM; in series [11], 33 nM. Besides, the Efficacy with THP-1 [5] turned out to be 151%; in the series on Huh-7 [6], 73%. Further, the bioavailability (usually dose-corrected exposure relative to a reference, in per cent) in series [16] turned out to be 67%. Moreover, the peak concentration (Cmax) (as a rule, the highest concentration seen after dosing) in series [17] came to 3740 ng/mL. Besides, the AUC(0-inf) (commonly the area under the concentration-time curve extrapolated to infinity) in series [18] was 4440 ng·h/mL. Further, the half-life in [19] was 78 min. Moreover, the Tmax (as a rule, the time at which the peak concentration occurs) in series [20] was found to be 30 min. Further, in the series on Mus musculus, the Activity was 45%. In addition, the IC50 (as a rule, the concentration at which inhibition is half-maximal) in series [10] amounted to 7.6 nM.

Regarding `O=C(O)Cc1cccc(OCCCN(Cc2cccc(C(F)(F)F)c2Cl)CC(c2ccccc2)c2ccccc2)c1`, the Activity in the series with Mus musculus amounted to 27%. Further, the figures for the IC50 in [9] and in series [10] were 12 nM and 100 nM, respectively. In series [11], this compound displayed an EC50 of 410 nM.
